This note sets out measurements from PMC10319809, “Chronic UCN2 treatment desensitizes CRHR2 and improves insulin sensitivity” (Nature Communications, 2023).

One test has as its target T1, hCRHR2α G13 (Homo sapiens, UniProt Q13324).
T1 construct: expressed in transfected cells; host or cells: HEK293 cells (Millipore Sigma), transient PEI co-transfection with biosensor plasmids at Domain Therapeutics
T1 sequence (Q13324 1-411): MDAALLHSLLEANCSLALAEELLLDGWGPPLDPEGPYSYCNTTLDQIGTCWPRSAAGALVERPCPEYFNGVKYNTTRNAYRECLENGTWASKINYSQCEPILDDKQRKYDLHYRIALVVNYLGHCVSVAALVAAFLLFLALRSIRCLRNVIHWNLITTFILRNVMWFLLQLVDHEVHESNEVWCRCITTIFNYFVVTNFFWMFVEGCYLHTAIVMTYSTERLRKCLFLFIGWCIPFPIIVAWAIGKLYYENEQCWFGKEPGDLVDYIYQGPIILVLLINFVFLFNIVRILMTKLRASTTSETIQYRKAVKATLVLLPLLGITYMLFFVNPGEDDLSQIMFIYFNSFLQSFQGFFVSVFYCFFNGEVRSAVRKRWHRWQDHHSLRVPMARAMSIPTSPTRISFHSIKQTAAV
Description: ebBRET EMTA, G13 biosensor. As to conditions: HEK293 cells, CRHR2a, n = 2 independent experiments. In kind it is cell-based. Here is the method: Typically, GPCR desensitization is carried out through the recruitment of β-Arrestins or alternative G-proteins to the receptor. To identify whether these proteins are recruited to CRHR2 in response to UCN2, enhanced bystander bioluminescence resonance energy transfer (ebBRET)-based effector membrane translocation assays (EMTA) were carried out in HEK293 cells[28],[29]. Cells were co-transfected with plasmids expressing unmodified CRHR2a (alpha isoform) and one of various pathway-specific biosensors. […]
Effector membrane translocation biosensor assays (bioSensAll®) were conducted at Domain Therapeutics NA Inc. (Montreal, QC, Canada) and described in cells[28],[29]. […] Briefly, DNA and PEI were diluted separately in 150 mM NaCl, mixed and then incubated for at least 20 min at room temperature (note: salmon sperm DNA (Invitrogen) was used to adjust the total amount of DNA transfected to a final quantity of 1 ug per mL of cell culture to be transfected). During the 20-minute incubation, HEK293 cells were detached, counted and resuspended into cell culture medium to a final density of 350,000 cells per mL. […] Cells were then incubated at room temperature for 10 min and BRET readings subsequently collected with a 0.4 s integration time on a Synergy NEO plate reader (BioTek Instruments, Inc., USA; filters: 400 nm/70 nm, 515 nm/20 nm). […]

The next test concerns WT animals. Description: Blood glucose and plasma insulin 15 min after intraperitoneal UCN2. In kind it is in vivo, mouse. As to conditions: 1 mg/kg IP, 15 min post-dose; n = 5. On the procedure: WT animals were injected IP with 1 mg/kg recombinant UCN2 or an equivalent volume of saline. Blood glucose and plasma insulin measurements were made pre-injection and 15 min post-dose. 20 min after the injection animals were euthanized and gastrocnemius muscle was dissected and snap-frozen in liquid nitrogen. The tissue was pulverized and homogenized in 700 ul SDS-buffer (0.1 M Tris/HCl 7.6, 4% SDS, 0.1 mM DTT), heated for 5 min at 95 °C and sonicated (Bioruptor®Plus Diagenode, 30 sec on-30sec off cycle for 10 cycles). After centrifugation for 10 min at 10,000 x g at 15 °C, the proteins in the supernatant were precipitated with 4X (volumes) ice-cold acetone (−20 °C) and stored at −20 °C overnight. The precipitates were centrifuged for 15 min at 10,000 × g, acetone was decanted, and the resulting pellets were dried for 10 min at room temperature. The pellet was resuspended in 500ul denaturing buffer (8 M urea and 10 mM Tris, pH 8.5) and sonicated (Bioruptor®Plus Diagenode, 30 s on-30 s off cycle for 5 cycles). The protein concentration was determined with a Bradford assay (Bio-Rad, Hercules, CA, USA). The proteins were reduced with dithiothreitol (DTT) 5 mM final concentration for 60 min at 37 °C and alkylated with iodoacetamide (8 mM final concentration) for 45 min at RT in the dark. […]

Where no end group is shown, it is not given here.

“IVLSLDVPIGLLQILLEQARARAAREQATTNARILARVGHC-NH2 (C-terminus assumed) [UCN2, Urocortin 2]”: the G13 recruitment entry at hCRHR2α G13 is “not recruited”. Further, in the test on WT animals, the “blood glucose levels after injection” value is “significantly increased blood glucose levels” and the “plasma insulin after injection” value was “no significant difference”.
